Measurements reported in patent publication US11510869B2, “Medical devices including medicaments and methods of making and using same including enhancing comfort, enhancing drug penetration, and treatment of myopia” (priority 2010, dated 2022).
Entries after “also recorded” stand apart in the source; their conditions may differ. Like-named read-outs stand apart in the source and are kept apart here. One block for each molecule: values may come before it.

How the values were obtained:
myopia progression = details: cited from earlier work; for Control of myopia progression / Side effects: 0.01% atropine eye drops
[1] = at therapeutic doses; cited from earlier work
[2] = Ink testing of HA loaded ink; assay type: physicochemical
Experimental: Required amount of HA was directly added in an ink, followed by sonication for 15 minutes, thus providing HA in a polymer matrix.
In case of HA, which was HEMA monomer ink insoluble, its particulate form (without processing) is loaded in ink along with Tween 20, followed by sonication for 5 to 60 minutes.
The following table provides results of ink testing.

[3] = HA loaded ink, direct HA loading, 2% drug loading

Molecule: CN1[C@@H]2CC[C@H]1C[C@@H](OC(=O)C(CO)c1ccccc1)C2 (stereo partly drawn) [Atropine]
Control of myopia progression (myopia progression): effective in reducing the progression of myopia | Side effects (myopia progression): cycloplegia; also recorded: Photophobia; also recorded: elevation of intraocular pressures; also recorded: Risk of angle closure glaucoma | Control of myopia progression (myopia progression; listed as atropine): ability to control the progress of myopia; also recorded: effective in controlling myopia progression | Side effects (myopia progression; listed as atropine): limited side effects; also recorded: minimal side effects | Effect of discontinuation of atropine treatment (myopia progression; in some cases): rebound of myopia progression | Progression of myopia (myopia progression; low dose atropine drops in combination with multifocal glasses): slow the progression of myopia

Molecule: CCNC(=O)CCC/C=C\C[C@@H]1[C@@H](/C=C/[C@@H](O)CCc2ccccc2)[C@H](O)C[C@@H]1O [Bimatoprost]
Systemic or local toxicity [1]: minimal systemic or local toxicity

EST (mN/m) [2, 3]: 36.03 mN/m | Particle/globule size (nm) [2, 3]: 1227 nm | Viscosity (c.p.) [2, 3]: 12.6 c.p. | pH [2, 3]: 6 | Solubility in HEMA monomer ink ([2]; HEMA monomer ink): insoluble
Molecule: Hyaluronic Acid [Hyaluronic Acid (HA)]
